Values of other authors as cited in article PMC9328939, “A Randomized Double‐Blind Placebo‐Controlled First‐In‐Human Phase 1 Trial of TransCon PTH in Healthy Adults” (Journal of Bone and Mineral Research, 2020).

Key:
healthy volunteers = settings: sCa raised comparably to a calcium clamp (10.3 mg/dL; FECa 6.0% to 7.0%) by infusion of PTHrP(1-36); cited from earlier work
From the text: TransCon PTH may also positively impact hypercalciuria, a major cause of morbidity in patients with HP.

PTH/PTHrP receptor = settings: stated without data; no reference given; cited from earlier work
[1] = short-acting PTH(1-84); cited from earlier work
From the text: The TransCon PTH bone turnover data are similar to the published literature, which illustrate that continuous PTH administration is not anabolic. […] TransCon PTH did modestly and transiently increase the bone resorption marker, serum CTx, consistent with t ...

Molecule: PTHrP(1‐36): parathyroid hormone-related protein fragment infused in healthy volunteers in a literature study
- FECa (healthy volunteers): did not differ from normal controls

Molecule: PTH(1‐33): metabolite of PTH(1-34) shortened by a single amino acid; part of Free PTH (SVSEIQLMHNLGKHLNSMERVEWLRKKLQDVHN; Parathyroid hormone; UniProt P01270 32-64, looked up, fragment)
- potency at the PTH/PTHrP receptor relative to PTH(1-34) (PTH/PTHrP receptor): equipotency

B1: PTH(1‐84): parathyroid hormone for injection, once-daily short-acting rhPTH(1-84) (protein, UniProt P01270 32-115, looked up)
Parathyroid hormone: SVSEIQLMHNLGKHLNSMERVEWLRKKLQDVHNFVALGAPLAPRDAGSQRPRKKEDNVLVESHEKSLGEADKADVNVLTKAKSQ
modifications: Parathyroid hormone
- persistent increase in CTx [1]: 200%
